Measured values from ChEMBL document CHEMBL3616448, “N-Hydroxyimides and hydroxypyrimidinones as inhibitors of the DNA repair complex ERCC1-XPF” (Bioorg Med Chem Lett, 2015).
Activity calls are given as the source filed them. The rule behind the calls is not given here.

Experiments:
Flap endonuclease 1 = Flap endonuclease 1 (Homo sapiens, UniProt P39748); experiment: Inhibition of FEN1 (unknown origin)
[1] = target: T1, DNA excision repair protein ERCC-1/DNA repair endonuclease XPF (Homo sapiens, UniProt P07992+Q92889); experiment: Inhibition of ERCC1-XPF (unknown origin) by high-throughput fluorescence based in-vitro endonuclease assay; assay type: protein-complex assay
T1 sequence (P07992 whole entry): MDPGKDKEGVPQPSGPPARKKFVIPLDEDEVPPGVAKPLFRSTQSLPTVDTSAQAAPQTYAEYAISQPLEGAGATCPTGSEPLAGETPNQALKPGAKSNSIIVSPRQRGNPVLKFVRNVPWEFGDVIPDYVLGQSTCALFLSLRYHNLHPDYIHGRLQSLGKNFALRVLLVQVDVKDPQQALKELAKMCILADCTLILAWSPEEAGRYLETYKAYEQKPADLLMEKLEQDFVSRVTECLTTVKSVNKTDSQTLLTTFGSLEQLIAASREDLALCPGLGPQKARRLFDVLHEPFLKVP
T1 sequence (Q92889 whole entry): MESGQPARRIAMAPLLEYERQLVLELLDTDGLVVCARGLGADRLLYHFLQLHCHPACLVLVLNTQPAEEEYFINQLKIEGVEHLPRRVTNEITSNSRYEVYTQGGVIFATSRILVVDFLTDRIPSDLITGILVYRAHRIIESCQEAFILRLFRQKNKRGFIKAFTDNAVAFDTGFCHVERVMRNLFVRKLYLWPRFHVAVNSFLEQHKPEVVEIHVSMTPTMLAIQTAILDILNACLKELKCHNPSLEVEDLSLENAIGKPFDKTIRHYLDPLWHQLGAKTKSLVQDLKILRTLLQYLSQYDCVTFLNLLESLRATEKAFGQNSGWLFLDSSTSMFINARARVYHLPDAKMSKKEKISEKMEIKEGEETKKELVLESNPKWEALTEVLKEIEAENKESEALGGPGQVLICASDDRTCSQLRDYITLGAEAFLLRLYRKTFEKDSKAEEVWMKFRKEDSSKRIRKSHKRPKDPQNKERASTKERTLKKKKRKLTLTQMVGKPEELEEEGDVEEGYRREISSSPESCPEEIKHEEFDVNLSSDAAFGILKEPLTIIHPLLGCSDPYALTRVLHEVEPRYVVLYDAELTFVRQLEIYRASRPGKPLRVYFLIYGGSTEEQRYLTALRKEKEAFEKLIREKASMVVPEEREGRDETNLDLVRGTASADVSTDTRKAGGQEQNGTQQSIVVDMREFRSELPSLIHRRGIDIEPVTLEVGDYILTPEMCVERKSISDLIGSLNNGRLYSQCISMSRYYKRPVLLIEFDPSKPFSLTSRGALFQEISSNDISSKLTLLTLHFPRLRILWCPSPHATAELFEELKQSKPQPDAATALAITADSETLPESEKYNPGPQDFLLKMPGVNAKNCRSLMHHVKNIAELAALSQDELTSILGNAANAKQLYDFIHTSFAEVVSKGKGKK

Deoxyribonuclease-1 = target: T2, Deoxyribonuclease-1 (Homo sapiens, UniProt P24855); experiment: Inhibition of DNAse1 (unknown origin)
T2 sequence (P24855 whole entry): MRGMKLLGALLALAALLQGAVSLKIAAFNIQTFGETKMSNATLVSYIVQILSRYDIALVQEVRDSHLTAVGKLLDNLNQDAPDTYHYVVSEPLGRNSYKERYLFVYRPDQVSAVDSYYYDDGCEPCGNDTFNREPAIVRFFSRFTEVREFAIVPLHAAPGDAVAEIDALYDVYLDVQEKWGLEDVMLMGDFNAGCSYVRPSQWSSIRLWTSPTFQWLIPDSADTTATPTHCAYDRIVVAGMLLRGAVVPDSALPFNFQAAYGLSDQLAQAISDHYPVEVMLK

[2] = Lipophilicity, log D of the compound; assay type: physicochemical; details: octanol/water
[3] = Half life in mouse liver microsomes; assay type: ADME
HepG2 = experiment: Cytotoxicity against human HepG2 cells; assay type: cell-based
[4] = Half life in human liver microsomes; assay type: ADME
[5] = Apparent permeability by PAMPA method; assay type: physicochemical
[6] = target: T1, DNA excision repair protein ERCC-1/DNA repair endonuclease XPF; experiment: Binding affinity to ERCC1-XPF (unknown origin) by SPR assay; assay type: protein-complex assay
[7] = target: T3, DNA excision repair protein ERCC-1/DNA repair endonuclease XPF (Homo sapiens) (UniProt P07992+Q92889); experiment: Inhibition of ERCC1-XPF in human A375 cells assessed as potentiation of cisplatin-induced cytotoxicity at 0.1 to 3 uM incubated for 5 days; assay type: cell-based; details: A-375
[8] = target: T3, DNA excision repair protein ERCC-1/DNA repair endonuclease XPF (Homo sapiens); experiment: Inhibition of ERCC1-XPF in human A375 cells assessed as induction of delay in DNA repair by measuring cumulative frequency of cells up to 10 uM pre-incubated for 1 hr before cisplatin exposure for 1 hr by immunohistochemistry based gammaH2AX foci assay; assay type: cell-based; details: A-375
[9] = target: T3, DNA excision repair protein ERCC-1/DNA repair endonuclease XPF (Homo sapiens); experiment: Binding affinity to ERCC1-XPF (unknown origin) assessed as melting temperature by thermal shift assay; assay type: protein-complex assay
[10] = target: T3, DNA excision repair protein ERCC-1/DNA repair endonuclease XPF (Homo sapiens); experiment: Inhibition of ERCC1-XPF in human A375 cells assessed as reduction in direct nucleotide excision repair of UV-damaged pEGFP plasmid up to 10 uM incubated for 24 hrs by recombinant GFP reporter assay; assay type: cell-based; details: A-375
A-375 = experiment: Cytotoxicity against human A375 cells assessed as reduction in cell number at 0.1 to 3 uM incubated for 5 days; assay type: cell-based; details: a-375, 120 h

Flap endonuclease 1, sequence (P39748 whole entry): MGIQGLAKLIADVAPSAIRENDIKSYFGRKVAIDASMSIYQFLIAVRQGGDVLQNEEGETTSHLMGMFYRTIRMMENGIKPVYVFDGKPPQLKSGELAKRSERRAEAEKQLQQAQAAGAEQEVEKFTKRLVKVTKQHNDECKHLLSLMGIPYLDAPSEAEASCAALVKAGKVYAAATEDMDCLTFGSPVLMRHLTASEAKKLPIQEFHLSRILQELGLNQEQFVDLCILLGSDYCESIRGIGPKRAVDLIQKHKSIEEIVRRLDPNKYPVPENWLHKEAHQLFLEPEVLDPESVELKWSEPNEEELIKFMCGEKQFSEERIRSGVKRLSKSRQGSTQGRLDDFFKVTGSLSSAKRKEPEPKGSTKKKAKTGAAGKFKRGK

SMILES	IC50 (Flap endonuclease 1)	IC50 [1]	IC50 (Deoxyribonuclease-1)	other results
Cn1c(=O)n(O)c(=O)c2ccccc21	2.1 µM	96.2 µM	> 100 µM	–
CC(=O)Nc1ccc2[nH]c(=O)n(O)c(=O)c2c1	2 µM	6.6 µM	87 µM	–
O=c1[nH]c2sccc2c(=O)n1O	0.009 µM	3.9 µM	> 100 µM	–
O=C(Nc1ccc(F)cc1)c1nc(-c2cccs2)[nH]c(=O)c1O	10.5 µM	0.8 µM	–	–
CC(=O)NCCNC(=O)c1nc(-c2cccs2)[nH]c(=O)c1O	5 µM	0.8 µM	62.6 µM	–
NC(=O)c1nc(-c2cccs2)nc(O)c1O	23.3 µM	1 µM	> 100 µM	logD [2]: -0.4; half-life [3]: 2.5 h; Activity (HepG2): > 10 µM; half-life [4]: 2.32 h; Papp [5]: 0.7 ×10⁻⁶ cm/s
O=C(Nc1cccnc1)c1nc(-c2cccs2)[nH]c(=O)c1O	8.6 µM	0.7 µM	> 100 µM	–
O=C1c2cccc3c(Cl)ccc(c23)C(=O)N1O	0.7 µM	12 µM	–	–
O=c1cc(-c2ccccc2)[nH]c(=O)n1O	0.63 µM	1.5 µM	> 100 µM	–
Cn1c(-c2cccs2)nc(C(=O)O)c(O)c1=O	88.9 µM	48.8 µM	> 100 µM	–
O=c1c2ccsc2n(Cc2ccccc2)c(=O)n1O	0.68 µM	80.4 µM	> 100 µM	–
COC(=O)c1nc(-c2cccs2)nc(O)c1O	10.1 µM	27.3 µM	> 100 µM	–
O=C(c1nc(-c2cccs2)[nH]c(=O)c1O)N1CCCC1	13.7 µM	4.6 µM	–	–
CCCNC(=O)c1nc(-c2cccs2)[nH]c(=O)c1O	4.2 µM	2.7 µM	> 100 µM	–
CCC(C)NC(=O)c1nc(-c2cccs2)[nH]c(=O)c1O (configuration not stated)	1.3 µM	0.6 µM	> 100 µM	logD [2]: 2.1; half-life [3]: > 6.67 h; Activity (HepG2): > 10 µM; half-life [4]: > 6.67 h; Papp [5]: 9.7 ×10⁻⁶ cm/s
CC(=O)Nc1ccc2c(=O)n(O)c(=O)[nH]c2c1	2.1 µM	6.4 µM	> 100 µM	–
Cc1ccc(-c2coc3c(=O)n(O)c(=O)[nH]c23)cc1	0.057 µM	1.5 µM	> 100 µM	–
O=C1c2cccc3cccc(c23)C(=O)N1O	0.3 µM	30 µM	–	–
O=c1[nH]c2cc(N3CCCC3)ccc2c(=O)n1O	1.1 µM	9.1 µM	27.9 µM	–

SMILES	IC50 (Flap endonuclease 1)	IC50 [1]	IC50 (Deoxyribonuclease-1)	other results
CNC(=O)c1nc(-c2cccs2)[nH]c(=O)c1O	12 µM	0.6 µM	67.6 µM	logD [2]: 0.5; half-life [3]: > 6.67 h; Kd [6]: 4 µM; Activity (HepG2): > 10 µM; inhibition [7]: inactive; inhibition [8]: inactive; half-life [4]: 3.02 h; Papp [5]: 3.1 ×10⁻⁶ cm/s; ΔTm [9]: 4 °C; inhibition [10]: inactive; Activity (A-375): Non-toxic
CC(C)CCNC(=O)c1nc(C2CCN(C)CC2)[nH]c(=O)c1O	> 100 µM	6.9 µM	–	–
CC(C)CCNC(=O)c1nc(C2CCCCN2)[nH]c(=O)c1O (configuration not stated)	> 100 µM	6.3 µM	–	–
O=c1[nH]c2c(-c3ccccc3)csc2c(=O)n1O	0.003 µM	1.8 µM	> 100 µM	–
O=C(NCCN1CCOCC1)c1nc(-c2cccs2)[nH]c(=O)c1O	4.1 µM	1 µM	58.9 µM	–
CC(C)CCNC(=O)c1nc(-c2ccc(CN(C)C)cc2)[nH]c(=O)c1O	71.3 µM	1.7 µM	–	–
O=c1[nH]c2cc(Nc3ccccc3)ccc2c(=O)n1O	0.23 µM	3.9 µM	30.2 µM	–
O=C(NCCO)c1nc(-c2cccs2)[nH]c(=O)c1O	4 µM	0.7 µM	> 100 µM	–
CC(=O)Nc1cccc2c(=O)n(O)c(=O)[nH]c12	0.038 µM	6.1 µM	> 100 µM	–
CC(C)CCNC(=O)c1nc(C2CCCN(C)C2)[nH]c(=O)c1O (configuration not stated)	> 100 µM	25.3 µM	–	–
O=c1[nH]c2ccccc2c(=O)n1O	0.3 µM	18.1 µM	> 100 µM	–
CC(C)CCNC(=O)c1nc(-c2cccs2)[nH]c(=O)c1O	3.5 µM	0.5 µM	–	–
COc1nc(-c2cccs2)nc(C(=O)O)c1O	–	> 100 µM	–	–
O=C(O)c1nc(-c2ccccc2)nc(O)c1O	16.4 µM	3.9 µM	> 100 µM	–
O=C(O)c1nc(-c2cccs2)nc(O)c1O	10.4 µM	2.9 µM	> 100 µM	–
COC(=O)c1nc(-c2ccccc2)[nH]c(=O)c1O	53.4 µM	16.4 µM	> 100 µM	–
CC(C)CCNC(=O)c1nc(C2CCCCN2C)[nH]c(=O)c1O (configuration not stated)	> 100 µM	8.4 µM	–	–
O=C(NCc1ccc(F)cc1)c1nc(-c2cccs2)nc(O)c1O	2.1 µM	4.2 µM	> 100 µM	–
CC(C)CCNC(=O)c1nc(-c2ccc(CN3CCOCC3)cc2)[nH]c(=O)c1O	38.1 µM	0.8 µM	–	–
